Measurements from patent US4985560A, “Pyridazino(4,5-b)indolizines” (American Home Products Corporation, priority 1990, dated 1991).
Several values for one entry are separate records, joined by “and”; a condition that tells them apart may be missing. Identical values can stand only once. Values belong to the compound of their own block, whether it stands above or below them.

Experiments:
[1] = test system: scopolamine-induced hyperactivity (muscarinic M1-mediated effect); experiment: Reduction of scopolamine-induced hyperactivity (locomotor activity chambers); format: in vivo, rat
Method: The motor activity chambers utilize infrared detectors to assess movement in 3 axes. Total activity measures (vertical+horizontal activity) were collected in 15 minute intervals for 1 hour post-injection. Total activity measures were cumulated across all time intervals for statistical analysis.

[2] = test system: male Sprague-Dawley (Charles River) rats; experiment: Radial arm maze test, scopolamine impairment; format: in vivo, rat; settings: for scopolamine impairment in delay, current and total errors / time compared to scopolamine / delay, current and total errors versus vehicle / time measures versus vehicle: first experiment (Table 2); for scopolamine impairment in delay, current and total errors / time compared to scopolamine: versus scopolamine
From the text: The compound of Example 1 was also studied in the radial arm maze test where male Sprague-Dawley (Charles River) rats on a 23-hour food deprivation schedule were trained in an eight arm radial maze with all arms baited. Each session consisted of two maze exposures, with a time limit of 500 seconds for each exposure. After four correct choices (first exposure), each animal was removed from the maze for one hour then returned with only the remaining four arms baited (second exposure). Choice errors, consisting of delay errors (re-entry into any of the four arms chosen during the first exposure) and current errors (re-entry into any of the four arms chosen during the second exposure), as well as total errors were recorded. Durations for each exposure were also recorded. Statistical analysis were preformed using a One-Way Anova with Dunnetts T-Test comparisons.
All compounds were solubilized in distilled water.

memory loss = settings: cited from earlier work
[3] = test system: Alzheimer's patients and healthy elderly patients; settings: cited from earlier work; for clinical efficacy: due to side-effects, short duration of action, narrow active dose range
M2 receptor = target: T1, M2 receptor (Rattus norvegicus, UniProt P10980); experiment: biochemical; format: binding; settings: read-out: [3H]QNB M2 IC50
T1 sequence (P10980 1-466): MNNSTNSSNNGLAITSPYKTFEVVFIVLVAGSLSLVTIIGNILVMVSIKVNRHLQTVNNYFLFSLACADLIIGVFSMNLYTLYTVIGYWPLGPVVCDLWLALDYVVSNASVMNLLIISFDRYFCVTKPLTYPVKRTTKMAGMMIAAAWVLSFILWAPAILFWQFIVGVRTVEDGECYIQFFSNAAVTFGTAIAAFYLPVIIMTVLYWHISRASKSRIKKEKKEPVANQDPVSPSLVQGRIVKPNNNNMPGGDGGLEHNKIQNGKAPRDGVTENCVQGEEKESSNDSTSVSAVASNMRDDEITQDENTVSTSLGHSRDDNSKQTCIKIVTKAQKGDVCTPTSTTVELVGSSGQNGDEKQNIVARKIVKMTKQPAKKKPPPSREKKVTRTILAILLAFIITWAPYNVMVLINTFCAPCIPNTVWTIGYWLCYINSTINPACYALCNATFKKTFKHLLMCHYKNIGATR

M1 muscarinic receptor = target: T2, M1 muscarinic receptor (Rattus norvegicus, UniProt P08482); experiment: [3H]-Pirenzepine M1 receptor binding, rat brain tissue; settings: for IC50: [3H]pirenzepine, rat brain tissue; for M2/M1: ratio of M2 IC50 to M1 IC50
T2 construct: from tissue; host or cells: rat brain tissue
T2 sequence (P08482 1-460): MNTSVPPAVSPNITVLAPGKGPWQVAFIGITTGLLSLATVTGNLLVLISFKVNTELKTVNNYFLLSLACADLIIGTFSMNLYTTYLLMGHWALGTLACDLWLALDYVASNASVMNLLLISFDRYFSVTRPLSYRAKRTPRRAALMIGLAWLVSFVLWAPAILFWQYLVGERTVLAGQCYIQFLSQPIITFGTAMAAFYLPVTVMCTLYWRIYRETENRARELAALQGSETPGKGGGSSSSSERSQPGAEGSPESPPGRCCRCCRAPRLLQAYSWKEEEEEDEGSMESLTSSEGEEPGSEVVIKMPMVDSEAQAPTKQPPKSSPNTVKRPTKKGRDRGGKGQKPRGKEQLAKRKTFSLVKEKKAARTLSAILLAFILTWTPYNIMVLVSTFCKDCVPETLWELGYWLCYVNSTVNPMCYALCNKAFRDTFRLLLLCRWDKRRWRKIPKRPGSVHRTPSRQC

[4] = Table 2, arecoline 10.0 mg/kg i.p., scopolamine-impaired
[5] = Table 3, 1.0 mg/kg i.p. + scopolamine HBr 0.3 mg/kg s.c.
[6] = Table 3, 3.0 mg/kg i.p. + scopolamine HBr 0.3 mg/kg s.c.
[7] = Table 3, 10.0 mg/kg i.p. + scopolamine HBr 0.3 mg/kg s.c.
[8] = Table 2, physostigmine 0.01 mg/kg i.p., scopolamine-impaired
[9] = Table 2, scopolamine HBr 0.3 mg/kg s.c. alone
[10] = Table 3, scopolamine HBr 0.3 mg/kg s.c. alone

Compound: COC(=O)C1=CCCN(C)C1 [Arecoline, arecoline]
dose active in scopolamine-induced hyperactivity test ([1]; route not stated): about 5.4 mg/kg | Mean Errors, Current [2, 4]: 0.75 | Mean Errors, Delay [2, 4]: 1.50 | Mean Errors, Total [2, 4]: 2.25 | Mean Time, Current [2, 4]: 2.32 min | Mean Time, Delay [2, 4]: 1.50 min | Mean Time, Total [2, 4]: 4.06 min | scopolamine impairment in delay, current and total errors [2]: significant reduction in scopolamine impairment in delay, current and total errors | time compared to scopolamine [2]: no significant time reduction versus scopolamine | delay, current and total errors versus vehicle [2]: did not | time measures versus vehicle [2]: significant time increase versus vehicle | reversal of muscarinic antagonist-induced memory deficit, rats (memory loss; rats): can be reversed | clinical efficacy [3]: neither physostigmine nor arecoline have clinical efficacy

Compound: Cc1nnc(NCCN2CCOCC2)c2cc3ccccn3c12 [Example 4, N-[2-(4-Morpholinyl)ethyl]-4-methylpyridazino[4,5-b]indolizin-1-amine]
IC50 (M2 receptor): 19 µM | IC50 (M1 muscarinic receptor): 2.45 µM | M2/M1 (M1 muscarinic receptor): 8

Compound: Cc1nnc(N2CCN(C)CC2)c2cc3ccccn3c12 [Example 7, 4-Methyl-1-(4'-methylpiperazinyl)pyridazino[4,5-b]indolizine]
IC50 (M2 receptor): 29 µM | IC50 (M1 muscarinic receptor): 1 µM | M2/M1 (M1 muscarinic receptor): 29

Compound: CNC(=O)Oc1ccc2c(c1)[C@]1(C)CCN(C)[C@@H]1N2C [Physostigmine, physostigmine]
Mean Errors, Current [2, 8]: 0.88 | Mean Errors, Delay [2, 8]: 1.13 | Mean Errors, Total [2, 8]: 2.00 | Mean Time, Current [2, 8]: 2.01 min | Mean Time, Delay [2, 8]: 1.14 min | Mean Time, Total [2, 8]: 3.25 min | scopolamine impairment in delay, current and total errors [2]: significant reduction in scopolamine impairment in delay, current and total errors | time compared to scopolamine [2]: significant time reduction compared to scopolamine in both delay time (first exposure) and total time | delay, current and total errors versus vehicle [2]: did not | reversal of muscarinic antagonist-induced memory deficit, humans and monkeys (memory loss; humans and monkeys): can be reversed | clinical efficacy [3]: neither physostigmine nor arecoline have clinical efficacy

Compound: CN1[C@@H]2C[C@@H](OC(=O)[C@H](CO)c3ccccc3)C[C@H]1[C@@H]1O[C@@H]12 [Scopolamine, scopolamine]
total activity measure ([1]; scopolamine 1.7 mg/kg s.c. alone): significant increase | Mean Errors, Current [2, 9]: 3.63 | Mean Errors, Total [2, 9]: 6.38 | Mean Time, Current [2, 9]: 2.78 min | Mean Time, Delay [2, 9]: 2.28 min | Mean Time, Total [2, 9]: 5.27 min | Mean Errors, Current [2, 10]: 3.57 | Mean Errors, Total [2, 10]: 5.72 | Mean Time, Current [2, 10]: 2.90 min | Mean Time, Delay [2, 10]: 2.01 min | Mean Time, Total [2, 10]: 5.14 min | delay, current and total errors versus vehicle [2]: significant increase in delay, current and total errors versus vehicle | time measures versus vehicle [2]: increased all time measures compared to vehicle | total errors compared to vehicle ([2]; second experiment (Table 3)): significantly increased total errors compared to vehicle | time measures compared to vehicle ([2]; second experiment (Table 3), scopolamine alone): increased all time measures compared to vehicle | memory loss induced (memory loss; normal humans and animals (cat, rat, monkey)): Memory loss

Compound: lecithin
improvement on cognitive tests ([3]; Alzheimer's patients and healthy elderly patients): No significant improvement

Continued, in another order:

IC50 (M2 receptor): 4.1 µM | IC50 (M1 muscarinic receptor): 0.098 µM | M2/M1 (M1 muscarinic receptor): 42
Compound: CCN(CC)CCCNc1nnc(C)c2c1cc1ccccn12 [Example 1, 1-[(3'-Diethylaminopropyl)amino]-4-methylpyridazino[4,5-b]indolizine]
total activity versus vehicle-only controls ([1]; 30 and 54 mg/kg i.p., scopolamine 1.7 mg/kg s.c.): did not differ from vehicle-only controls | dose active in reducing scopolamine-induced hyperactivity ([1]; i.p., scopolamine 1.7 mg/kg s.c., rats): 30 mg/kg and 54 mg/kg | total time compared to scopolamine ([2]; 1.0 mg/kg i.p., Table 3): reduction in time impairment compared to scopolamine | delay time (first exposure) versus vehicle ([2]; 3.0 mg/kg i.p., Table 3): significantly increased | current and total errors, dose trend ([2]; 1, 3, 10 mg/kg i.p., Table 3): definite dose-related decrease in scopolamine impairment | delay errors, dose trend ([2]; 1, 3, 10 mg/kg i.p., Table 3): no dose-related trend | total time versus vehicle ([2]; 3.0 and 10 mg/kg i.p., Table 3): significantly increased | Mean Errors, Current [2, 5]: 2.00 | Mean Errors, Delay [2, 5]: 1.83 | Mean Errors, Total [2, 5]: 3.67 | Mean Time, Current [2, 5]: 1.83 min | Mean Time, Delay [2, 5]: 1.03 min | Mean Time, Total [2, 5]: 2.99 min | Mean Errors, Current [2, 6]: 1.13 | Mean Errors, Delay [2, 6]: 2.38 | Mean Errors, Total [2, 6]: 3.50 | Mean Time, Current [2, 6]: 2.92 min | Mean Time, Delay [2, 6]: 1.95 min | Mean Time, Total [2, 6]: 4.96 min | Mean Errors, Current [2, 7]: 0.75 | Mean Errors, Delay [2, 7]: 2.00 | Mean Errors, Total [2, 7]: 2.75 | Mean Time, Current [2, 7]: 3.32 min | Mean Time, Delay [2, 7]: 1.63 min | Mean Time, Total [2, 7]: 5.15 min | impairment caused by scopolamine ([2]; all doses tested (1, 3, 10 mg/kg i.p.), Table 3): reduced the impairment caused by scopolamine | current time (second exposure) versus vehicle ([2]; all groups, Table 3): significantly increased | cognitive impairment due to cholinergic hypofunction ([2]; overall conclusion): can reduce cognitive impairment

IC50 (M2 receptor): 12 µM | IC50 (M1 muscarinic receptor): 0.66 µM | M2/M1 (M1 muscarinic receptor): 18
Compound: Cc1nnc(NCCN(C)C)c2cc3ccccn3c12 [Example 2]

IC50 (M2 receptor): 9.5 µM | IC50 (M1 muscarinic receptor): 0.6 µM | M2/M1 (M1 muscarinic receptor): 24
Compound: Cc1nnc(NCCCN(C)C)c2cc3ccccn3c12 [Example 3, N,N-Dimethyl-N'-(4-methylpyridazino[4,5-b]indolizin-1-yl)-1,3-propanediamine]

IC50 (M2 receptor): 12 µM | IC50 (M1 muscarinic receptor): 0.27 µM | M2/M1 (M1 muscarinic receptor): 44
Compound: Cc1nnc(NCCCN2CCOCC2)c2cc3ccccn3c12 [Example 5, N-[3-(4-Morpholinyl)propyl]-4-methylpyridazino[4,5-b]indolizin-1-amine]

IC50 (M2 receptor): 6.2 µM | IC50 (M1 muscarinic receptor): 0.26 µM | M2/M1 (M1 muscarinic receptor): 24
Compound: CCN1CCCC1CNc1nnc(C)c2c1cc1ccccn12 (stereo not drawn) [Example 6, N-[(1-Ethyl-2-pyrrolidinyl)methyl]-4-methylpyridazino[4,5-b]-indolizin-1-amine]

IC50 (M2 receptor): 1.4 µM | IC50 (M1 muscarinic receptor): 0.11 µM | M2/M1 (M1 muscarinic receptor): 13
Compound: Cc1nnc(NCCCN2CCCCC2)c2cc3ccccn3c12 [Example 8, 4-Methyl-N-[3-(1-piperidinyl)propyl]pyridazino[4,5-b]indolizin-1-amine]

IC50 (M2 receptor): 2.8 µM | IC50 (M1 muscarinic receptor): 0.15 µM | M2/M1 (M1 muscarinic receptor): 19
Compound: Cc1nnc(NCCCN2CCN(C)CC2)c2cc3ccccn3c12 [Example 9, 4-Methyl-N-[4'-methyl(1-piperazinyl)propyl]pyridazino[4,5-b]indolizin-1-amine]

IC50 (M2 receptor): 3.5 µM | IC50 (M1 muscarinic receptor): 0.14 µM | M2/M1 (M1 muscarinic receptor): 25
Compound: Cc1nnc(NCCCCN2CCN(C)CC2)c2cc3ccccn3c12 [Example 10, 4-Methyl-N-[4'-methyl(1-piperazinyl)butyl]pyridazino[4,5-b]indolizin-1-amine]
